The source of these data is patent publication US9572893B2, “Nanocomplex containing cationic peptide for biomolecule delivery” (Council of Scientific and Industrial Research, priority 2012, dated 2017).

What all share (format): cell-based
Data set [1] deals with CHO-K1 cells and HACAT cells. Briefly: Cell viability / cytotoxicity, cell line not stated (MTT and CellTitreGLO). The settings on record: cell line not stated. Here is the method:
(§1) FIG. 3: Cell viability measured via MTT assay and CellTitreGLO assay. CHO-K1 cells and HACAT cells were treated with arginines-histidine-cysteine based peptides comprising nanocomplexes (at charge ratio 10.0) and a Lipofectamine™/Cellfectin™/Superfect™-DNA complex for 4 hours and cell viability was assessed after 24 hours. Untreated cells are taken as control and their absorbance (in the presence of MTT reagent and cell titre GLO reagent) is set as 100% and relative decrease in absorbance is taken as measure of cell viability.
CHO-K1 cells were seeded at density of 7000 cells per well in 96 well plate format in Hams F12K media containing 10% FBS at 37° C. and 5% CO2 in humidified incubator. […] Finally the absorbance was recorded at 550 nm and 670 nm (to negate debris) along with the blank using ELISA plate reader. The percentage viability was calculated by Treated wells (OD550−OD670)/Untreated well (OD550−OD670)*100. […]
The experiment was performed in 96 well plate format wherein the Hacat cells were seeded at 50000 cells per well in DMEM-F12 media containing 10% FBS at 37° C. and 5% CO2 in humidified incubator. […] The plate was then kept in dark for 10 mins at RT for stabilization of the luminescence signal. The reading was recorded on Tecan system and plotted as % cell viability.

The nature of data set [2]: Cytotoxicity of nanocomplex using MTT assay. The settings on record: CHO-K1 cells, charge ratio 10.0, treated 4 hours; read-out: cell viability. Here is the method:
as §1
(§2) CHO-K1 cells were seeded at density of 7000 cells per well in 96 well plate format in Hams F12K media containing 10% FBS at 37° C. and 5% CO2 in humidified incubator. After 24 hours cells were washed with serum free media and treated with different nanocomplex at Z=10.0 (in quadruplets) for 4 hours, keeping DNA concentration 200 ng/well. The viability was assayed after 4 hrs and 24 hrs (in the latter case nanocomplex containing media was replaced with complete media after 4 hrs) of transfection. Briefly 100 ul of MTT reagent (0.5 mg/ml) was added to each well and incubated at 37° C. for 2 hrs to allow formation of formazan crystals. […] Following incubation 100 ul MTT detergent buffer (0.5 ml 10% SDS and 0.06 ml 12N HCl in 10 ml isopropanol) was added to each well and crystals were dissolved by gentle shaking for 30 mins. Finally the absorbance was recorded at 550 nm and 670 nm (to negate debris) along with the blank using ELISA plate reader. The percentage viability was calculated by Treated wells (OD550−OD670)/Untreated well (OD550−OD670)*100. The average of two independent experiments is plotted where each treatment is performed in quadruplets.

Another data set deals with CHO-K1 cells. Briefly: Cytotoxicity of nanocomplex using MTT assay. Here is the method: as §1, §2
(In general: Formazan colour is commonly taken as a measure of viable cells.)

Data set [3] can be described thus: Cytotoxicity estimation using Celltitre GLO method. The following applies: human; Hacat cells, charge ratio 10.0, treated 4 hours; read-out: cell viability. The procedure:
as §1
(§3) The experiment was performed in 96 well plate format wherein the Hacat cells were seeded at 50000 cells per well in DMEM-F12 media containing 10% FBS at 37° C. and 5% CO2 in humidified incubator. After 24 hours cells were washed with serum free media and treated with nanocomplex at Z=10.0 (in quadruplets) for 4 hours, keeping DNA concentration 200 ng/well. The viability was assayed after 4 hrs and 24 hrs (in the latter case nanocomplex containing media was replaced with complete media after 4 hrs) of transfection. Initially the plate was equilibrated for 30 mins at RT followed by addition of 100 ul of cell titre GLO reagent with continuous shaking on rotor for 2 mins to allow cell lysis. The plate was then kept in dark for 10 mins at RT for stabilization of the luminescence signal. The reading was recorded on Tecan system and plotted as % cell viability.

Another data set deals with Hacat cells. The data set is described as follows: Cytotoxicity estimation using Celltitre GLO method. Here is the method:
as §1, §3

The structures appear in SMILES notation. Where a SMILES comes first, the peptide text is derived from it.

Usually viability stands for a read-out of living cells in per cent, often relative to untreated cells.

With `N=C(N)NCCC[C@H](NC(=O)[C@H](Cc1c[nH]cn1)NC(=O)[C@H](CCCNC(=N)N)NC(=O)[C@H](Cc1c[nH]cn1)NC(=O)[C@H](CCCNC(=N)N)NC(=O)[C@H](Cc1c[nH]cn1)NC(=O)[C@H](CCCNC(=N)N)NC(=O)[C@H](Cc1c[nH]cn1)NC(=O)[C@H](CCCNC(=N)N)NC(=O)[C@H](Cc1c[nH]cn1)NC(=O)[C@H](CCCNC(=N)N)NC(=O)[C@H](Cc1c[nH]cn1)NC(=O)[C@H](CCCNC(=N)N)NC(=O)[C@H](Cc1c[nH]cn1)NC(=O)[C@H](CCCNC(=N)N)NC(=O)[C@H](CCCNC(=N)N)NC(=O)[C@@H](N)CS)C(=O)N[C@@H](CS)C(=O)O` [CR(RH)7RC, CRRHRHRHRHRHRHRHRC] (H-CRRHRHRHRHRHRHRHRC-OH), the cytotoxicity entry in data set [1] is “minimal”. Also, the viability at 4 h in data set [2] was 70 to 80%; in data set [3] it was 80 to 90%. In the data set on CHO-K1 cells, the “cell viability compared to Cellfectin and Superfect transfection agents” value is on record as “comparable”. Also, in the data set on Hacat cells, the “cell viability compared to Cellfectin” value is listed as “comparable”.
On to `N=C(N)NCCC[C@H](NC(=O)[C@H](CCCNC(=N)N)NC(=O)[C@H](CCCNC(=N)N)NC(=O)[C@H](CCCNC(=N)N)NC(=O)[C@H](Cc1c[nH]cn1)NC(=O)[C@H](Cc1c[nH]cn1)NC(=O)[C@H](Cc1c[nH]cn1)NC(=O)[C@H](Cc1c[nH]cn1)NC(=O)[C@H](CCCNC(=N)N)NC(=O)[C@H](CCCNC(=N)N)NC(=O)[C@H](CCCNC(=N)N)NC(=O)[C@H](CCCNC(=N)N)NC(=O)[C@H](CCCNC(=N)N)NC(=O)[C@@H](N)CS)C(=O)N[C@@H](Cc1c[nH]cn1)C(=O)N[C@@H](Cc1c[nH]cn1)C(=O)N[C@@H](Cc1c[nH]cn1)C(=O)N[C@@H](CS)C(=O)O` [CR5H4R4H3C, CRRRRRHHHHRRRRHHHC] (H-CRRRRRHHHHRRRRHHHC-OH), for which the cytotoxicity result in data set [1] is reported as “minimal”. Also, the viability at 4 h in data set [2] and in data set [3] was 80 to 90% in each case. In addition, the “cell viability compared to Cellfectin and Superfect transfection agents” value in the data set with CHO-K1 cells is reported as “comparable”. The “cell viability compared to Cellfectin” value in the data set on Hacat cells is on record as “comparable”.
